Test results from PMC6382874, “Succinylation-dependent mitochondrial translocation of PKM2 promotes cell survival in response to nutritional stress” (Cell Death & Disease, 2019).
Where two headings read alike, the source gives them in different places.

Experiments:
[1] = system: PKM2 mitochondrial translocation; assay: PKM2 mitochondrial translocation (fractionation, western blot) in HCT116 cells; assay type: cell-based, human; details: 20 μM, glucose starvation, HCT116
Protocol: (§1) Fig. 6 Compound 8 blocks PKM2 mitochondrial translocation under nutritional stress and inhibits tumor growth in vivo. a Compound 8 blocks glucose starvation induced PKM2 mitochondrial translocation. Isolation of mitochondria and immunoblot of PKM2, tubulin and Tom 40 were carried out with or without compound 8 treatment. b Compound 8 disrupts interaction of PKM2 and VDAC3. HCT116 cells were transfected with HA-tagged PKM2, cells were harvested and subjected to stag pull down after 8 h 20 µM compound 8 treatment. c Compound 8 induces VDAC3 for degradation. cells were harvested and evaluated VDAC3 protein levels after 8 h 10 or 20 µM compound 8 treatment. d, e Compound 8 caused a decrease in the rate of NADH oxidation. After 8 h of treatment with 20 µM compound 8, HCT116 cells mitochondria were isolated for NADH oxidation assays. NAD/NADH ratios in HCT116 cell lysates were evaluated by LC–MS. f Compound 8 inhibited ATP production in HCT116 cells. g The tumor volume (n = 7) of HCT116 xenografts from mice with intraperitoneal injection of compound 8 and vehicle control
HCT116 cells were harvested and washed two times with cold PBS. Cells were then homogenized in a buffer (220 mM mannitol, 70 mM sucrose, 2 mM EGTA, 5 mM MOPS-Tris pH 7.4, 2 mM Taurine, 0.2% BSA). The homogenate was spun for 5 min at 800g.The supernatant containing the cytoplasmic and mitochondrial fractions were transferred to a fresh tube and spun for 5 min at 12,000g. The pellet contained the mitochondrial fraction and the supernatant contained the cytoplasmic fraction.
Cells were lysed in buffer containing 50 mM Tris pH8.0, 2 mM EDTA, 150 mM NaCl, 0.5% Nonidet P-40, 10% glycerol and protease inhibitor PMSF. Western blot analysis was carried out based on standard methods. The following commercial antibodies were used as probes: anti-Flag antibody (Sigma, F3165), anti-HA antibody (Sigma, H3663), anti-α-Tubulin (EasyBio, BE0026–100), anti-PKM2 (RuiYingBio, RLT3777), anti-TOM 40 (Santa Cruz sc-365467), anti-succinyllysine antibody (PTM BIO PTM-901), anti-GAPDH (SanJian).

H1299 cells = assay: cell viability test, H1299; assay type: cell-based; details: cell viability, 48 h, read-out: IC50 (H1299)
Protocol: We assessed the anti-tumor effects of compound 8 by evaluation of cancer cell viability. Compound 8 reduced cell viability with an IC50 of about 5 µM in MTT reduction assays in HCT116, MCF7, and H1299 cells (Table 2). […] To determine whether cancer cell death brought about by compound 8 is PKM2 dependent, PKM2 was knocked down in HCT116 cells using two different shRNA sequences that specifically targeted exon 10 without interfering with PKM1 expression. Compound 8 is an inhibitor which causes a loss of function of PKM2. If PKM2 is a specially targeted by compound 8, its knockdown should render cells more vulnerable to compound 8-mediated PKM2 inhibition since shRNA and compound 8 work synergistically by reducing the intracellular drug target concentration.
Cells were seeded in 96-well plates at 5000 cells/well in DMEM media overnight. Cells were treated with different concentrations of test compound for 48 h at 37 °C in 5% CO2. Cell viability was assayed with the MTS assay (Promega) and trypan blue staining according to the manufacturer’s instructions.

PKM2-VDAC3 interaction = molecular target: T1, PKM2-VDAC3 interaction (Homo sapiens, UniProt P14618); assay: PKM2-VDAC3 interaction, stag pull down in HCT116 cells; assay type: cell-based; details: 20 µM, 8 h
T1 construct: expressed in transfected cells; host or cells: HCT116
Protocol: as §1
About 2.5 mg whole cellular extracts were prepared in 700 μl RIPA buffer (50 mM Tris-HCl, pH 8.0, 150 mM NaCl, 1.5 mM MgCl2, 0.1% sodium dodecyl sulfate (SDS), 0.5% deoxycholate, 0.5% NP-40, 1 mM phenylmethylsulfonyl fluoride (PMSF), 1× protease inhibitor cocktail (Roche)). […]

PKL = molecular target: T2, PKL (Homo sapiens, UniProt P30613); assay: fluorescent PK-LDH coupled assay, PKL; assay type: biochemical; details: PK-LDH coupled assay; read-out: IC50 (PKL)
T2 construct: purchased Sino Biological Inc
Protocol: Human cDNA for PKM2, PKM1, and VDAC3 were separately cloned into a pET28a (+) and pGEX-4T-1 vector with an N-terminal His-tag and N-terminal GST-tag and purified from the Escherichia coli strain BL21 (Invitrogen) using Ni–agarose beads and GST agarose beads (Qiagen) as described previously. PKL was purchased from Sino Biological Inc. in China.
Pyruvate kinase activity was measured with a fluorescent pyruvate kinase–lactate dehydrogenase coupled assay as described previously. All compounds were tested in a kinetic mode by coupling the generation of pyruvate by pyruvate kinase to the depletion of NADH through lactate dehydrogenase. For PKM2, 40 μL of buffer (50 mM Tris–HCl, pH 7.5, 10 mM KCl, 5 mM MgCl2), 1 μL of compound and 5 μL of enzyme solution were dispensed into Corning black solid 96-well plates and incubated for 15 min. Totally, 55 μL of substrate mix (final concentration, 0.5 mM PEP, 4.0 mM ADP, 0.12 mM NADH, 0.25 mM FBP, and 1 unit LDH) were then added, and the plates were placed in a FlexStation3 (Molecular Devices), followed by determination of NADH fluorescence at 30 s exposure intervals for 3–6 min. Data were collected on a FlexStation3.

T2 sequence (P30613 1-543 isoform P30613-2, species assumed): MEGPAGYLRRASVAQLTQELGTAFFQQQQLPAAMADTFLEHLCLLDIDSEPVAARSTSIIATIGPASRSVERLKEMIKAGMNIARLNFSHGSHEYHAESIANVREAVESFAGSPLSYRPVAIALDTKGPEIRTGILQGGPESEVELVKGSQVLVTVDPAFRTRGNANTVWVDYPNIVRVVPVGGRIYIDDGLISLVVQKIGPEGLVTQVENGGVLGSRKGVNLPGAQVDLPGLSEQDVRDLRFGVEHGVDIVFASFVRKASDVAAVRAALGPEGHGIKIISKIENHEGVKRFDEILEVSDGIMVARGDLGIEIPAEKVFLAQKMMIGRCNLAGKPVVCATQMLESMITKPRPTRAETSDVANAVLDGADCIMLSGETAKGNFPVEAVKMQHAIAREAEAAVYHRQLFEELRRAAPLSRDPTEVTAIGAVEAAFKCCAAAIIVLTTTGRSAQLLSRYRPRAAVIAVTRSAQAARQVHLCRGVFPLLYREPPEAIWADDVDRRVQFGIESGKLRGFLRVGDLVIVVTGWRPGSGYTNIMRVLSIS
T1 sequence (P14618 whole entry): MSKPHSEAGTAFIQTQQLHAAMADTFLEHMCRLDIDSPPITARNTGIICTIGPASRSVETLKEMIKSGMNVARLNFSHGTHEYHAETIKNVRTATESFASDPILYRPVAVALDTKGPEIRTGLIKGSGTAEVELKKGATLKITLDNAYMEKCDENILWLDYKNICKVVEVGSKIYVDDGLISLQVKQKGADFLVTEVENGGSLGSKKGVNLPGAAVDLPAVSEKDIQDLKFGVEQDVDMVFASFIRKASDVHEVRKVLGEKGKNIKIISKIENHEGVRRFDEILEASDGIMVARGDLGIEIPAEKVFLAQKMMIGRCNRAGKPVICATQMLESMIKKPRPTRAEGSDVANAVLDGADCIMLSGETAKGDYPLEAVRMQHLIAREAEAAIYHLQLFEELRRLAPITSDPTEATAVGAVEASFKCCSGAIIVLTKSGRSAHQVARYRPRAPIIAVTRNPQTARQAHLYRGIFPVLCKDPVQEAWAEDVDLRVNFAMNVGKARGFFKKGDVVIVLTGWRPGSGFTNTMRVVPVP

For `CCCN(CCC)P(N)(=O)OCC1=CC(=O)c2ccccc2C1=O` (centres unmarked) [Compound 8], the PKM2 mitochondrial translocation [1] was “can restrain PKM2 mitochondrial translocation”, the IC50 (H1299 cells; Homo sapiens, NCI-H1299, 48 h) was roughly 5 µM and the IC50 (H1299 cells) was 4.75 ± 1.15 µM. The “interaction of PKM2 with VDAC3” value (PKM2-VDAC3 interaction) was “abolished its interaction with VDAC3” and the IC50 (PKL) was 20.4 ± 3.54 µM.
